From ChEMBL document CHEMBL3817770, “Design and synthesis of 5-aminolaevulinic acid/3-hydroxypyridinone conjugates for photodynamic therapy: enhancement of protoporphyrin IX production and photo-toxicity in tumor cells” (Medchemcomm, 2016)
Calls of active or inactive are those of the source. The calls are words filed in the database; no cut-off is given here.

Key:
[1] = system: A549; experiment: Dark toxicity in human A549 cells at 200 uM after 4 hrs by MTT assay; assay type: cell-based; settings: a549, 4 h
[2] = system: A549; experiment: Phototoxicity in human A549 cells assessed as cell survival at 200 uM incubated for 4 hrs followed by irradiation with blue light for 5 mins by MTT assay; assay type: functional; settings: A549, light or radiation study, read-out: Survival
[3] = system: LNCaP; experiment: Increase in protoporphyrin 9 levels in human LNCAP cells at 200 uM after 3 hrs by fluorescence spectrometer plate reader method; assay type: functional
[4] = system: MCF7; experiment: Dark toxicity in human MCF7 cells at 200 uM after 4 hrs by MTT assay; assay type: cell-based; settings: mcf7, 4 h
[5] = system: LNCaP; experiment: Phototoxicity in human LNCAP cells assessed as cell survival at 200 uM incubated for 4 hrs followed by irradiation with blue light for 5 mins by MTT assay; assay type: functional; settings: light or radiation study, read-out: Survival
[6] = system: A549; experiment: Increase in protoporphyrin 9 levels in human A549 cells at 200 uM after 3 hrs by fluorescence spectrometer plate reader method; assay type: functional
[7] = system: LNCaP; experiment: Dark toxicity in human LNCAP cells at 200 uM after 4 hrs by MTT assay; assay type: cell-based
[8] = system: HeLa; experiment: Increase in protoporphyrin 9 levels in human HeLa cells after 5 hrs by fluorescence spectrometer plate reader method; assay type: functional, cell-based
[9] = system: LNCaP; experiment: Increase in protoporphyrin 9 levels in human LNCAP cells at 200 uM after 24 hrs by fluorescence spectrometer plate reader method; assay type: functional
[10] = system: MDA-MB-435; experiment: Increase in protoporphyrin 9 levels in human MDA-MB-435 cells after 5 hrs by fluorescence spectrometer plate reader method; assay type: functional, cell-based
[11] = system: MDA-MB-435; experiment: Phototoxicity in human MDA-MB-435 cells assessed as cell survival incubated for 4 hrs followed by irradiation with blue light for 5 mins by MTT assay; assay type: functional, cell-based
[12] = system: A549; experiment: Increase in protoporphyrin 9 levels in human A549 cells at 200 uM after 6 hrs by fluorescence spectrometer plate reader method; assay type: functional
[13] = system: A549; experiment: Increase in protoporphyrin 9 levels in human A549 cells at 100 uM after 24 hrs by fluorescence spectrometer plate reader method relative to ALA; assay type: functional
[14] = system: MDA-MB-435; experiment: Phototoxicity in human MDA-MB-435 cells assessed as cell survival at 250 uM incubated for 4 hrs followed by irradiation with blue light for 5 mins by MTT assay; assay type: functional; settings: MDA-MB-435, light or radiation study, read-out: Survival
[15] = system: HeLa; experiment: Phototoxicity in human HeLa cells assessed as cell survival incubated for 4 hrs followed by irradiation with blue light for 5 mins by MTT assay; assay type: functional, cell-based
[16] = system: LNCaP; experiment: Increase in protoporphyrin 9 levels in human LNCAP cells at 100 uM after 24 hrs by fluorescence spectrometer plate reader method relative to ALA; assay type: functional
[17] = system: KB; experiment: Phototoxicity in human KB cells assessed as cell survival at 200 uM incubated for 4 hrs followed by irradiation with blue light for 5 mins by MTT assay; assay type: functional; settings: light or radiation study, read-out: Survival
[18] = system: MCF7; experiment: Phototoxicity in human MCF7 cells assessed as cell survival at 100 uM incubated for 4 hrs followed by irradiation with blue light for 5 mins by MTT assay; assay type: functional; settings: MCF7, light or radiation study, read-out: Survival
[19] = system: A549; experiment: Increase in protoporphyrin 9 levels in human A549 cells at 200 uM after 3 hrs by fluorescence spectrometer plate reader method relative to ALA and CP94; assay type: functional
[20] = system: KB; experiment: Increase in protoporphyrin 9 levels in human KB cells at 200 uM after 3 to 24 hrs by fluorescence spectrometer plate reader method; assay type: functional, cell-based
[21] = system: A549; experiment: Phototoxicity in human A549 cells assessed as cell survival at 100 uM incubated for 4 hrs followed by irradiation with blue light for 5 mins by MTT assay; assay type: functional; settings: A549, light or radiation study, read-out: Survival
[22] = Phototoxicity in human BPH1 cells assessed as cell survival at 200 uM incubated for 4 hrs followed by irradiation with blue light for 5 mins by MTT assay; assay type: cell-based, BPH-1; settings: BPH1 cells, read-out: Survival
[23] = system: LNCaP; experiment: Increase in protoporphyrin 9 levels in human LNCAP cells at 200 uM after 6 hrs by fluorescence spectrometer plate reader method; assay type: functional
[24] = system: HeLa; experiment: Phototoxicity in human HeLa cells assessed as cell survival at 250 uM incubated for 4 hrs followed by irradiation with blue light for 5 mins by MTT assay; assay type: functional; settings: light or radiation study, read-out: Survival
[25] = system: A549; experiment: Increase in protoporphyrin 9 levels in human A549 cells at 200 uM after 6 hrs by fluorescence spectrometer plate reader method relative to ALA and CP94; assay type: functional
[26] = Phototoxicity in human BPH1 cells assessed as cell survival at 100 uM incubated for 4 hrs followed by irradiation with blue light for 5 mins by MTT assay; assay type: cell-based, BPH-1; settings: read-out: Survival
[27] = Increase in protoporphyrin 9 levels in human BPH1 cells at 200 uM after 3 to 24 hrs by fluorescence spectrometer plate reader method; assay type: ADME, cell-based; settings: bph-1, 200 µM
[28] = Dark toxicity in human BPH1 cells at 200 uM after 4 hrs by MTT assay; assay type: cell-based; settings: bph-1, 4 h
[29] = system: A549; experiment: Increase in protoporphyrin 9 levels in human A549 cells at 200 uM after 24 hrs by fluorescence spectrometer plate reader method relative to ALA and CP94; assay type: functional
[30] = system: A549; experiment: Increase in protoporphyrin 9 levels in human A549 cells at 200 uM after 24 hrs by fluorescence spectrometer plate reader method; assay type: functional
[31] = system: LNCaP; experiment: Phototoxicity in human LNCAP cells assessed as cell survival at 100 uM incubated for 4 hrs followed by irradiation with blue light for 5 mins by MTT assay; assay type: functional; settings: light or radiation study, read-out: Survival
[32] = system: KB; experiment: Increase in protoporphyrin 9 levels in human KB cells at 100 uM after 24 hrs by fluorescence spectrometer plate reader method relative to ALA; assay type: functional
[33] = Increase in protoporphyrin 9 levels in human BPH1 cells at 100 uM after 24 hrs by fluorescence spectrometer plate reader method relative to ALA; assay type: ADME, cell-based; settings: bph-1, 24 h
[34] = system: MCF7; experiment: Phototoxicity in human MCF7 cells assessed as cell survival at 100 uM incubated for 4 hrs followed by irradiation with blue light for 5 mins in presence of CP94 by MTT assay; assay type: functional; settings: MCF7, light or radiation study, read-out: Survival
[35] = system: A549; experiment: Phototoxicity in human A549 cells assessed as cell survival at 100 uM incubated for 4 hrs followed by irradiation with blue light for 5 mins in presence of CP94 by MTT assay; assay type: functional; settings: A549, light or radiation study, read-out: Survival
[36] = system: LNCaP; experiment: Increase in protoporphyrin 9 levels in human LNCAP cells at 200 uM after 6 hrs in presence of CP94 by fluorescence spectrometer plate reader method; assay type: functional
[37] = system: HeLa; experiment: Phototoxicity in human HeLa cells assessed as cell survival incubated for 4 hrs followed by irradiation with blue light for 5 mins in presence of CP94 by MTT assay; assay type: functional, cell-based
[38] = system: LNCaP; experiment: Phototoxicity in human LNCAP cells assessed as cell survival at 100 uM incubated for 4 hrs followed by irradiation with blue light for 5 mins in presence of CP94 by MTT assay; assay type: functional; settings: light or radiation study, read-out: Survival
[39] = Phototoxicity in human BPH1 cells assessed as cell survival at 100 uM incubated for 4 hrs followed by irradiation with blue light for 5 mins in presence of CP94 by MTT assay; assay type: cell-based, BPH-1; settings: read-out: Survival
[40] = system: MDA-MB-435; experiment: Phototoxicity in human MDA-MB-435 cells assessed as cell survival at 250 uM incubated for 4 hrs followed by irradiation with blue light for 5 mins in presence of CP94 by MTT assay; assay type: functional; settings: MDA-MB-435, light or radiation study, read-out: Survival
[41] = system: A549; experiment: Increase in protoporphyrin 9 levels in human A549 cells at 200 uM after 24 hrs in presence of CP94 by fluorescence spectrometer plate reader method; assay type: functional
[42] = system: A549; experiment: Increase in protoporphyrin 9 levels in human A549 cells at 200 uM after 6 hrs in presence of CP94 by fluorescence spectrometer plate reader method; assay type: functional
[43] = system: HeLa; experiment: Phototoxicity in human HeLa cells assessed as cell survival at 250 uM incubated for 4 hrs followed by irradiation with blue light for 5 mins in presence of CP94 by MTT assay; assay type: functional; settings: light or radiation study, read-out: Survival
[44] = system: LNCaP; experiment: Increase in protoporphyrin 9 levels in human LNCAP cells at 200 uM after 24 hrs in presence of CP94 by fluorescence spectrometer plate reader method; assay type: functional
[45] = system: LNCaP; experiment: Increase in protoporphyrin 9 levels in human LNCAP cells at 200 uM after 3 hrs in presence of CP94 by fluorescence spectrometer plate reader method; assay type: functional
[46] = system: A549; experiment: Increase in protoporphyrin 9 levels in human A549 cells at 200 uM after 3 hrs in presence of CP94 by fluorescence spectrometer plate reader method; assay type: functional
[47] = system: MDA-MB-435; experiment: Increase in protoporphyrin 9 levels in human MDA-MB-435 cells at 50 to 250 uM after 5 hrs in presence of CP94 by fluorescence spectrometer plate reader method; assay type: functional, cell-based
[48] = system: MDA-MB-435; experiment: Phototoxicity in human MDA-MB-435 cells assessed as cell survival incubated for 4 hrs followed by irradiation with blue light for 5 mins in presence of CP94 by MTT assay; assay type: functional, cell-based
[49] = system: HeLa; experiment: Increase in protoporphyrin 9 levels in human HeLa cells at 50 to 250 uM after 5 hrs in presence of CP94 by fluorescence spectrometer plate reader method; assay type: functional, cell-based

With `COC(=O)CCC(=O)CNC(=O)[C@H](Cc1ccccc1)NC(=O)c1c(O)c(=O)ccn1C` the Activity [1] was “Non-toxic”, the viability at 200 µM [2] was 16.3% and the Flu intensity [3] was 25.3 a.u. For the same molecule, the Activity [4] was “Non-toxic”, the viability at 200 µM [5] was 13.5% and the Flu intensity [6] was 27.7 a.u. The Activity [7] was “Non-toxic”, the Activity [8] was “Dose-dependent effect” and the Flu intensity [9] was 58.4 a.u. For the same molecule, the Activity [10] was “Dose-dependent effect”, the Activity [11] was “Dose-dependent effect” and the Flu intensity [12] was 52.9 a.u. The “fold change (FC)” value [13] was 3.1, the viability at 250 µM [14] was 11.1% and the Activity [15] was “Dose-dependent effect”. For the same molecule, the “fold change (FC)” value [16] was 4, the viability at 200 µM [17] was 7.8% and the viability at 100 µM [18] was 21.1%. For the same molecule, the Flu intensity [19] was 1.6 a.u, the Activity [20] was “Active” and the viability at 100 µM [21] was 14.7%. For the same molecule, the viability at 4 h, 200 µM [22] was 12.4%, the Flu intensity [23] was 47.1 a.u and the viability at 250 µM [24] was 15.3%. The Flu intensity [25] was 1.3 a.u, the viability at 4 h, 100 µM [26] was 75.1% and the Activity [27] was “Non-toxic”. The Activity [28] was “Non-toxic”, the Flu intensity [29] was 1.2 a.u and the Flu intensity [30] was 94.6 a.u. The viability at 100 µM [31] was 26.3%, the “fold change (FC)” value [32] was 2.9 and the “fold change (FC)” value [33] was 1.5.

For `NCC(=O)CCC(=O)O` [AMINOLEVULINIC ACID], the Activity [1] was “Non-toxic”, the viability at 100 µM [34] was 26.7% and the viability at 100 µM [35] was 18.4%. For the same molecule, the viability at 200 µM [2] was 54.7%, the Flu intensity [36] was 31.3 a.u and the Activity [37] was “Dose-dependent effect”. The viability at 100 µM [38] was 33.1%, the Activity [4] was “Non-toxic” and the viability at 4 h, 100 µM [39] was 81.9%. The viability at 200 µM [5] was 61.9%, the viability at 250 µM [40] was 28.9% and the Activity [7] was “Non-toxic”. The viability at 250 µM [14] was 61.4%, the viability at 200 µM [17] was 52.6% and the Flu intensity [41] was 77.8 a.u. The Flu intensity [42] was 42.1 a.u, the viability at 4 h, 200 µM [22] was 70.8% and the viability at 250 µM [24] was 58.6%. It also gave a viability at 250 µM [43] of 26.9%, a Flu intensity [44] of 46 a.u and a Flu intensity [45] of 17.3 a.u. The Flu intensity [46] was 17.7 a.u, the Activity [28] was “Non-toxic” and the Activity [47] was “Active”. For the same molecule, the Activity [48] was “Dose-dependent effect” and the Activity [49] was “Active”.
